Columns and labels:
[1] = biological target: T1, human NLuc‐A1R (Homo sapiens, UniProt P30542); assay: NanoBRET saturation binding in stable HEK293T cell line expressing NLuc‐A1R; settings: non‐specific defined with 1 μM SLV320; PSB603‐BY630 at concentrations up to 500 nM
T1 construct: expressed in transfected cells
T1 sequence (P30542 1-326): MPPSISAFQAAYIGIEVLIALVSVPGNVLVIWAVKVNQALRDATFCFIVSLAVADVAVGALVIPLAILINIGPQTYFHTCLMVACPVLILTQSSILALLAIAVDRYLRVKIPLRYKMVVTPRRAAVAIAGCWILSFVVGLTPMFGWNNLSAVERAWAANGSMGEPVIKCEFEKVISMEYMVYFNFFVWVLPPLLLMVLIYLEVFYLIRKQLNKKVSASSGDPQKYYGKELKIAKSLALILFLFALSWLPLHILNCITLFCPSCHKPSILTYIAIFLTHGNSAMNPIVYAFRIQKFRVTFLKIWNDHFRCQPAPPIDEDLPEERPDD
Experimental: (§1) Saturation and competition binding assays were performed as previously described.[36] Briefly, cells were seeded in 96‐well white clear‐bottomed Greiner plates pre‐treated with 10 μg/mL poly‐D‐lysine (Sigma‐Aldrich, Missouri USA) at a density of 30 000–35 000 cells per well in DMEM supplemented with 10% FBS. […] The NanoLuc substrate, furimazine (Promega Corporation, Wisconsin, USA), was then added to each well (1:400 dilution) and the plate was incubated for 10 min in the dark at 37°C. The resulting bioluminescence resonance energy transfer (BRET) was measured using a PHERAstar FS plate reader (BMG Labtech) at 37°C. For each well, filtered light emissions at 460 nm (80 nm bandpass) and >610 nm (longpass) for the BODIPY630/650 ligand were simultaneously measured. BRET ratios were calculated by dividing the 610 nm emission by the 460 nm emission. All conditions were performed in 2–6 replicates within each plate. For kinetic experiments, cells were preincubated for 10 min with 1:400 dilution of furimazine prior to addition of 200 nM PSB603‐BY630 and BRET ratios determined every 0.5 min. At 60 min, 10 μM MRS‐1706 was added and the ligand‐binding kinetics followed for a further 60 min.

[2] = biological target: T2, human NLuc‐A3R (Homo sapiens, UniProt P0DMS8); assay: NanoBRET saturation binding in stable HEK293G cell line expressing NLuc‐A3R; settings: non‐specific defined with 1 μM MRS‐1220; PSB603‐BY630 at concentrations up to 500 nM
T2 construct: expressed in transfected cells
T2 sequence (P0DMS8 1-318): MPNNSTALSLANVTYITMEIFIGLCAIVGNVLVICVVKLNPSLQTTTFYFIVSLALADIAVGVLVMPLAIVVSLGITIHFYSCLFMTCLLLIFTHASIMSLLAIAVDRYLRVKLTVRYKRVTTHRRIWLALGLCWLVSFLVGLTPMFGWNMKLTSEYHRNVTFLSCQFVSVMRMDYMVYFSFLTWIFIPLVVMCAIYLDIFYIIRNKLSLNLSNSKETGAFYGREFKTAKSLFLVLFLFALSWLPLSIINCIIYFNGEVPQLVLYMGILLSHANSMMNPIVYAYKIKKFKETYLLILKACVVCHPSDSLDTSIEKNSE
Experimental: as §1

[3] = biological target: T3, NLuc‐A2BR (Homo sapiens, UniProt P29275); assay: cAMP GloSensor luminescence assay in HEK293G cells overexpressing NLuc‐A2BR; format: cell-based; settings: 20 nM and 200 nM PSB603‐BY630, overexpressed NLuc‐A2BR
T3 construct: expressed in transfected cells
T3 sequence (P29275 1-332): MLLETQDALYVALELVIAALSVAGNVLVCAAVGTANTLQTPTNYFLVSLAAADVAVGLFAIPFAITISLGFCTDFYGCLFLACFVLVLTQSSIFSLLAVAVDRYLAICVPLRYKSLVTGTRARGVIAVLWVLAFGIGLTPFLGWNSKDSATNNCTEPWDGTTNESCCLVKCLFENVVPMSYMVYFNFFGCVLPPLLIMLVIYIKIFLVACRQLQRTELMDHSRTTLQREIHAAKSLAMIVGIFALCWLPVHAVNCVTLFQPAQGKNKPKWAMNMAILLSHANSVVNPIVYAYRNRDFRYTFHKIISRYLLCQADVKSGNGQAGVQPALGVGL
Experimental: The cAMP GloSensor™ luminescence assay was performed according to the manufacturer's instructions (Promega Corporation, Madison, WI, USA). Briefly, after 24 h incubation at 37°C and 5% CO2 after cell plating (40 000 cells/well in 100 μL), medium was aspirated from each well of the 96‐well plate. Cells were incubated in 50 μL HEPES buffered saline solution (HBSS; 2 mM sodium pyruvate, 145 mM NaCl, 10 mM D‐glucose, 5 mM KCl, 1 mM MgSO4.7H2O, 10 mM HEPES, 1.3 mM CaCl2, 1.5 mM NaHCO3 in double‐distilled water, pH 7.45) containing 3% GloSensor™ cAMP reagent at 37°C for 1.5 h. For agonist studies, an initial baseline luminescence read was made at time zero, the plate was then removed from the plate‐reader and a further 50 μL HBSS containing agonist (2× final concentration) or HBSS (vehicle control) added. Luminescence was measured on an open channel (gain of 3600) immediately after these additions, and then continuously over 60 min, reading each well once every minute, by a PHERAstar FSX microplate reader (BMG Labtech, Offenburg, Germany) at 37°C. Increases in luminescence are indicative of intracellular cAMP accumulation, thus the temporal changes in relative cytosolic cAMP concentration were measured upon agonist or vehicle addition. Antagonist action was determined following 30 min pre‐incubation of HBSS in the presence of 20 and 200 nM PSB603‐BY630 and read as above. All conditions were performed in triplicates within each plate.

- specific binding to NLuc‐A1R [1]: negligible
- specific binding to NLuc‐A3R [2]: negligible
SMILES: CCCn1c(=O)[nH]c2[nH]c(-c3ccc(S(=O)(=O)N4CCN(c5ccc(OCCNC(=O)CCCCCNC(=O)COc6ccc(/C=C/C7=[N+]8C(=Cc9ccc(-c%10cccs%10)n9[B-]8(F)F)C=C7)cc6)cc5)CC4)cc3)nc2c1=O [PSB603‐BY630]
- effect on cAMP concentration‐response curve to BAY 60–6583 [3]: small increase in the EC50 for BAY 60–6583
